According to ChEMBL document CHEMBL6153138, “Discovery of Novel Aromatic Urea-Imidazole Salt Derivatives for Cancer Therapy via Targeting ERK1/2” (J Med Chem, 2025):
Activity calls are given as the source filed them. No cut-off for these calls is given here.

Columns and labels:
MCF7 [1] = experiment: Induction of autophagy in human MCF7 cells assessed as increase in LC3B expression at 1 uM incubated for 48 hrs in presence of 3-methyladenine by Western blot analysis; format: functional, cell-based
4T1 [2] = experiment: Antitumor activity against mouse 4T1 cells implanted in female BALB/c mouse model assessed as reduction in tumor weight at 50 mg/kg, po qd measured for 18 days in presence of chloroquine; format: functional, organism-based; settings: time 18.0 day
MCF7 [3] = experiment: Inhibition of cell invasion in human MCF7 cells at incubated for 48 hrs by crystal violet staining based assay; format: functional; settings: dose 0.5-2 µM
[4] = Toxicity in female BALB/c mouse assessed as effect ALP level in serum at 25 to 50 mg/kg, po qd measured after 18 days by biochemical analysis; format: organism-based; settings: in vivo, 432 h, dose 25-50 mg/kg, time 18 day
A-375 = experiment: Antiproliferative activity against human A-375 cells expressing B-Raf V600E mutant; format: functional, cell-based
HCC1937 = experiment: Antiproliferative activity against human HCC1937 cells incubated for 48 hrs by CCK-8 method; format: functional, cell-based; settings: HCC1937, 48 h
4T1 [5] = experiment: Antitumor activity against mouse 4T1 cells implanted in female BALB/c mouse model assessed as tumor growth inhibition at 25 mg/kg, po qd measured for 18 days relative to control; format: functional; settings: 4T1, 432 h, time 18 day, read-out: TGI
MCF7 [6] = experiment: Induction of autophagy in human MCF7 cells assessed as upregulation of beclin1 expression incubated for 48 hrs by Western blotting analysis; format: functional, cell-based; settings: dose 0.5-2 µM
MCF7 [7] = experiment: Induction of autophagy in human MCF7 cells assessed as increase in MDC positive cells at 0.5 to 2 uM by MDC staining based microscopic analysis; format: functional, cell-based; settings: dose 0.5-2 µM
MCF7 [8] = experiment: Induction of autophagy in human MCF7 cells harbouring ATG5 knockout assessed as increase in LC3B expression at 1 uM incubated for 48 hrs by Western blot analysis; format: functional, cell-based
MCF7 [9] = experiment: Induction of autophagic flux in human MCF7 cells assessed as colocalization of LAMP1 at 1 uM incubated for 48 hrs in presence of chloroquine by immunofluorescence analysis; format: functional, cell-based
4T1 [10] = experiment: Antitumor activity against mouse 4T1 cells implanted in female BALB/c mouse model assessed as reduction in tumor growth administered po qd measured for 18 days; format: functional, organism-based; settings: dose 25-50 mg/kg, time 18.0 day
MCF7 [11] = experiment: Activation of ERK1/2 pathway in human MCF7 cells assessed as increase in EGF-induced c-Myc phosphorylation at 2 uM incubated for 30 mins by Western blot analysis; format: cell-based
4T1 [12] = experiment: Antiproliferative activity against mouse 4T1 cells incubated for 48 hrs by CCK-8 method; format: functional, cell-based; settings: 4T1, 48 h
MCF7 [13] = experiment: Induction of autophagic flux in human MCF7 cells assessed as decrease in p62 protein level at 0.5 to 2 uM incubated for 48 hrs by Western blotting analysis; format: functional, cell-based; settings: dose 0.5-2 µM
MCF7 [14] = experiment: Inhibition of colony formation in human MCF7 cells harbouring ERK2 knockout at 1 uM incubated for 48 hrs by crystal violet staining based microscopic analysis; format: functional, cell-based
MCF7 [15] = experiment: Upregulation of C-caspase3 protein expression in human MCF-7 cells at 1 uM incubated for 6 hrs in presence of 3-methyladenine by Western blot analysis; format: functional, cell-based
MCF7 [16] = experiment: Inhibition of colony formation in human MCF7 cells harbouring ERK1 knockout at 1 uM incubated for 48 hrs by crystal violet staining based microscopic analysis; format: functional, cell-based
MCF7 [17] = experiment: Upregulation of C-caspase3 protein expression in human MCF-7 cells at 1 uM incubated for 6 hrs in presence of chloroquine by Western blot analysis; format: functional, cell-based
[18] = target: Mitogen-activated protein kinase 3 (Homo sapiens, UniProt P27361); experiment: Binding affinity to ERK1 (unknown origin) assessed as dissociation constant by MST analysis
Mitogen-activated protein kinase 3, sequence (P27361 whole entry): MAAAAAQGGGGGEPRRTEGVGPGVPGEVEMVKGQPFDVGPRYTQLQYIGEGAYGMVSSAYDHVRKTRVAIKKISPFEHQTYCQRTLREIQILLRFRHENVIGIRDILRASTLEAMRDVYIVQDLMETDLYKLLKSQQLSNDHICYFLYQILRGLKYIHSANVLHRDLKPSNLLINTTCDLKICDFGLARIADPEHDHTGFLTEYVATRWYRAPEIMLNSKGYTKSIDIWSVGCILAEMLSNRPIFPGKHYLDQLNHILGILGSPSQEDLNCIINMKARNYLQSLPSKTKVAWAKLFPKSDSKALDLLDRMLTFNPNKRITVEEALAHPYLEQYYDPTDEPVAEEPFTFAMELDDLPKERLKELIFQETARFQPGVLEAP

MCF7 [19] = experiment: Effect on MEK1/2 expression in human MCF7 cells at 0.5 to 2 uM measured after 30 mins to 4 hrs by Western blot analysis; format: functional, cell-based; settings: dose 0.5-2 µM, time 30-240 min
MCF7 [20] = experiment: Induction of autophagy in human MCF7 cells assessed as increase in AMPK phosphorylation level at 0.5 to 2 uM incubated for 48 hrs by Western blotting analysis; format: functional, cell-based; settings: dose 0.5-2 µM
[21] = Toxicity in female BALB/c mouse assessed as change in body weight at 50 mg/kg, po qd measured after 18 days in presence of chloroquine; format: organism-based; settings: in vivo, 432 h, time 18 day
MCF7 [22] = experiment: Upregulation of E-cadherin expression in human MCF7 cells at 0.5 to 2 uM; format: functional, cell-based; settings: dose 0.5-2 µM
4T1 [23] = experiment: Antitumor activity against mouse 4T1 cells implanted in female BALB/c mouse model assessed as increase in ERK1/2 phosphorylation at 50 mg/kg, po qd measured from 12 to 24 hrs by immunohistochemical analysis; format: functional, organism-based; settings: time 12-24 hrs
MCF7 [24] = experiment: Upregulation of ERK1/2 phosphorylation expression in human MCF7 cells at 2 uM measured after 8 hrs by immunofluorescence analysis; format: functional, cell-based
[25] = Cmax in Sprague-Dawley rat at 10 mg/kg, po by LC-MS/MS analysis; format: ADME, organism-based; settings: in vivo
[26] = Half life in Sprague-Dawley rat at 10 mg/kg, po by LC-MS/MS analysis; format: ADME, organism-based; settings: in vivo
[27] = target: Serine/threonine-protein kinase TAO2 (Homo sapiens) (UniProt Q9UL54); experiment: Inhibition of human TAO2 at 10000 nM by DiscoverX KINOMEscan assay relative to control
Serine/threonine-protein kinase TAO2 (Homo sapiens), sequence (Q9UL54 whole entry): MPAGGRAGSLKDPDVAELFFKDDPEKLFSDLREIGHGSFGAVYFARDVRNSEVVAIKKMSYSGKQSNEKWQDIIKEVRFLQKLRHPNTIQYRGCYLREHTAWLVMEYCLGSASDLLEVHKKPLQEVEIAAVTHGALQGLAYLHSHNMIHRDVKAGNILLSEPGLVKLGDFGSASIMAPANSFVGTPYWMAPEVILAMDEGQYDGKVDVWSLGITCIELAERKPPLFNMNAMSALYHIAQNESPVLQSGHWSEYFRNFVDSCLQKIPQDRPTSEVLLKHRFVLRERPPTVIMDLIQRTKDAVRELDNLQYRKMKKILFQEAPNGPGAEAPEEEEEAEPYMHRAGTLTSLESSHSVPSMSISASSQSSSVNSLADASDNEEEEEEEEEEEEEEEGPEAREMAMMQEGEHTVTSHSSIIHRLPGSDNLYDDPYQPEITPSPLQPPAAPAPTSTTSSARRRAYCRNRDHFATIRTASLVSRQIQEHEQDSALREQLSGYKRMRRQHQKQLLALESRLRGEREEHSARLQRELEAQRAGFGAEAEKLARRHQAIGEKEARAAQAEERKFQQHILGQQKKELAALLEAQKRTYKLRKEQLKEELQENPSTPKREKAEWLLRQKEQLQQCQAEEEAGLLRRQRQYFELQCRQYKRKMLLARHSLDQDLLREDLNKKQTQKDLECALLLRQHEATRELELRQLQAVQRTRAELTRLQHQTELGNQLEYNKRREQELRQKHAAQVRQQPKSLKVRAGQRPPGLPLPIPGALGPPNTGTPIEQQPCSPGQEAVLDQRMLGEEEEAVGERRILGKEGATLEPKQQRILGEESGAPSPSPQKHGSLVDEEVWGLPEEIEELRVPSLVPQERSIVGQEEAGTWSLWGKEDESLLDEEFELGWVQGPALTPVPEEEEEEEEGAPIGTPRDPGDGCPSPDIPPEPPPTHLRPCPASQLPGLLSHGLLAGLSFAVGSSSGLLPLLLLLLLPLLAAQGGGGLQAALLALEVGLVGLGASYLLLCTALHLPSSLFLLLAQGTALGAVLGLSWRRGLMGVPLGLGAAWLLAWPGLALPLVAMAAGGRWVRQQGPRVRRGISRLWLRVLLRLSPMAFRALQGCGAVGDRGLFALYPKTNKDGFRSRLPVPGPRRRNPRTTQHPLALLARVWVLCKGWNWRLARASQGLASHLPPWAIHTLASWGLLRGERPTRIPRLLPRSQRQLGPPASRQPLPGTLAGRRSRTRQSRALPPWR

[28] = target: Ribosomal protein S6 kinase alpha-1 (Homo sapiens, UniProt Q15418); experiment: Inhibition of human RSK1 at 10000 nM by DiscoverX KINOMEscan assay relative to control
Ribosomal protein S6 kinase alpha-1, sequence (Q15418 whole entry): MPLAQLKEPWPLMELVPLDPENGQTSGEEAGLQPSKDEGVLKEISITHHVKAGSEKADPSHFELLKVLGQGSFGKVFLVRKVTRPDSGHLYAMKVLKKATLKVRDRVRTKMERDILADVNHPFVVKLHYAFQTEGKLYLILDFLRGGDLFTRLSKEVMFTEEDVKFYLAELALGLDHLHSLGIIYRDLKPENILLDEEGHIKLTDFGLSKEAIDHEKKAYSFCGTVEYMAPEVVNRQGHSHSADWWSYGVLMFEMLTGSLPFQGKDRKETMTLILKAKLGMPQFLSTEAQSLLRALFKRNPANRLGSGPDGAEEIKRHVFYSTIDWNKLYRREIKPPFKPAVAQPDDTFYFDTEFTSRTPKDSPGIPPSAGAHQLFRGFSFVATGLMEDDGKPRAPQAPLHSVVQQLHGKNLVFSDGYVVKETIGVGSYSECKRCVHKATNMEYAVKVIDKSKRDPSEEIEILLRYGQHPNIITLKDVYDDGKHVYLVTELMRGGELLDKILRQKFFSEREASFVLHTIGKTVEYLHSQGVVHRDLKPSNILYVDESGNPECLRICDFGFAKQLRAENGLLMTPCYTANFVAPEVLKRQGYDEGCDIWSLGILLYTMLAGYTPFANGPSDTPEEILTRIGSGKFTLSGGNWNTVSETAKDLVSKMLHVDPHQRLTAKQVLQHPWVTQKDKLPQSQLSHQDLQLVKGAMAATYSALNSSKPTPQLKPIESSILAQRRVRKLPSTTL

MCF7 [29] = experiment: Inhibition of colony formation in human MCF7 cells at 1 uM incubated for 6 hrs in presence of 3-methyladenine by crystal violet staining based analysis; format: functional, cell-based
[30] = Toxicity in female BALB/c mouse assessed as effect on heart at 50 mg/kg, po qd measured after 18 days in presence of chloroquine by H and E staining based analysis; format: organism-based; settings: in vivo, 432 h, time 18 day
MCF7 [31] = experiment: Induction of autophagy in human MCF7 cells assessed as increase in LC3B expression at 0.5 to 2 uM by immunofluorescence analysis; format: functional, cell-based; settings: dose 0.5-2 µM
[32] = Clearance in Sprague-Dawley rat at 1 mg/kg, iv by LC-MS/MS analysis; format: ADME, organism-based; settings: in vivo
MCF7 [33] = experiment: Effect on MEK1/2 phosphorylation expression in human MCF7 cells at 0.5 to 2 uM measured after 30 mins to 4 hrs by Western blot analysis; format: functional, cell-based; settings: dose 0.5-2 µM, time 30-240 min
4T1 [34] = experiment: Antitumor activity against mouse 4T1 cells implanted in female BALB/c mouse model assessed as reduction in p-90RSK phosphorylation level at 50 mg/kg, po qd by immunohistochemical analysis; format: functional, organism-based
[35] = Toxicity in female BALB/c mouse assessed as effect on liver at 25 to 50 mg/kg, po qd measured after 18 days by H and E staining based analysis; format: organism-based; settings: in vivo, 432 h, dose 25-50 mg/kg, time 18 day
4T1 [36] = experiment: Antitumor activity against mouse 4T1 cells implanted in female BALB/c mouse model assessed as reduction in tumor volume at 50 mg/kg, po qd measured for 18 days in presence of chloroquine; format: functional, organism-based; settings: time 18.0 day
MCF7 [37] = experiment: Downregulation of c-Myc phosphorylation expression in human MCF7 cells at 0.5 to 2 uM measured after 30 mins to 4 hrs by Western blot analysis; format: functional, cell-based; settings: dose 0.5-2 µM, time 30-240 min

IC50 (A-375): 750 nM
IC50 (HCC1937): 1680 nM
IC50 (4T1 [12]): 2760 nM
Kd [18]: 159 nM
Cmax [25]: 770 ng/mL
half-life [26]: 2.51 h
inhibition [27]: 14%
inhibition [28]: 8%
clearance [32]: 15.2 mL/min/kg
SMILES: O=C(Nc1cc(C(F)(F)F)cc(C(F)(F)F)c1)N[C@@H](Cc1ccccc1)Cn1c[n+](Cc2ccc3ccccc3c2)c2ccccc21.[Br-]
Activity (MCF7 [1]): inactive
Activity (4T1 [2]): Active
inhibition (MCF7 [3]): Dose-dependent-effect
Activity [4]: Non-toxic
inhibition in vivo at 25 mg/kg (4T1 [5]): 40.7%
Activity (MCF7 [6]): Dose-dependent-effect
Activity (MCF7 [7]): Active
Activity (MCF7 [8]): inactive
Activity (MCF7 [9]): Active
Activity (4T1 [10]): Dose-dependent-effect
Activity (MCF7 [11]): inactive
Activity (MCF7 [13]): Active
inhibition (MCF7 [14]): inactive
Activity (MCF7 [15]): Active
inhibition (MCF7 [16]): inactive
Activity (MCF7 [17]): Active
Activity (MCF7 [19]): inactive
Activity (MCF7 [20]): Active
Activity [21]: Non-toxic
Activity (MCF7 [22]): Active
Activity (4T1 [23]): inactive
Activity (MCF7 [24]): Active
inhibition (MCF7 [29]): Active
Activity [30]: Non-toxic
Activity (MCF7 [31]): Dose-dependent-effect
Activity (MCF7 [33]): inactive
Activity (4T1 [34]): Active
Activity [35]: Non-toxic
Activity (4T1 [36]): Active
Activity (MCF7 [37]): Active
